In the test the target is T1, PDGFR-β (Homo sapiens, UniProt P09619).
T1 construct: host or cells: NIH 3T3
T1 sequence (P09619 33-1106): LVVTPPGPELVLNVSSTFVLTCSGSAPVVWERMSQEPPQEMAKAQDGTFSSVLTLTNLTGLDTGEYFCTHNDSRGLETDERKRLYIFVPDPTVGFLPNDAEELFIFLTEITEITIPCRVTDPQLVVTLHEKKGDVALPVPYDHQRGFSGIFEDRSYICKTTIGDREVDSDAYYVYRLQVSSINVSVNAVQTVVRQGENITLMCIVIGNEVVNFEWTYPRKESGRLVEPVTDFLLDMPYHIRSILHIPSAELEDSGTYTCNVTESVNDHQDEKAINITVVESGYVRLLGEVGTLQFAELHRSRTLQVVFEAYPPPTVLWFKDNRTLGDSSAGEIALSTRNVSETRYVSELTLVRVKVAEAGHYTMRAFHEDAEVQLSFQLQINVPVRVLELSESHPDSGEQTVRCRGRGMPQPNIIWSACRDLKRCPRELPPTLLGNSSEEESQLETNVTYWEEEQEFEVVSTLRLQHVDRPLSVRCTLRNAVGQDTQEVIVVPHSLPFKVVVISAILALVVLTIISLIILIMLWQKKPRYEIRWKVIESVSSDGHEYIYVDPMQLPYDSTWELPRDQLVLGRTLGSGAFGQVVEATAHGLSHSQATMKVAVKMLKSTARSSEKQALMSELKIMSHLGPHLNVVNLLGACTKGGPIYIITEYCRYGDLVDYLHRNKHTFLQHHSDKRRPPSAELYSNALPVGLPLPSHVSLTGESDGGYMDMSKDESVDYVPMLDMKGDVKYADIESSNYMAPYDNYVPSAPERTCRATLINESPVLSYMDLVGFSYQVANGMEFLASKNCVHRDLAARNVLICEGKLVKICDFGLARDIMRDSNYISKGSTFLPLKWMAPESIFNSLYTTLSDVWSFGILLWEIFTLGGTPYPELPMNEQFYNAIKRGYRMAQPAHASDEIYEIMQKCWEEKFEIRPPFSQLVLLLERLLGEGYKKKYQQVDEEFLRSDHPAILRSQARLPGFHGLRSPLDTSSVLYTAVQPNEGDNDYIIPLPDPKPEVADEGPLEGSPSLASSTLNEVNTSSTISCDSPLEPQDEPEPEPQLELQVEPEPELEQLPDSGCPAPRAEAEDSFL
Kind of test: Biochemical PDGFR assay (ELISA, PDGFR-β expressing NIH 3T3 cell lysate). To be noted: read-out: bio PDGF IC50. The method, boiled down:
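PDGFR-β from NIH 3T3 cell lysate captured on anti-PDGFR (28D4C10)-coated plates; compound preincubated 30 min, then 20 μM ATP kinase reaction 30 min at room temperature, stopped with EDTA. Phosphotyrosine detected by anti-phosphotyrosine antibody, peroxidase conjugate and ABTS/H2O2, read at 410 nm.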
A word on the IC50: it is the point on the concentration scale where inhibition reaches its midpoint. For the compound `COc1ccccc1-c1ccc2c(c1)NC(=O)/C2=C\c1[nH]c(C)cc1CCC(=O)O` [Example 109, 3-{2-[6-(2-Methoxyphenyl)-2-oxo-1,2-dihydroindol-3-ylidenemethyl]-5-methyl-1H-pyrrol-3-yl}-propionic acid], the IC50 turned out to be 2.79 µM.
To `O=C1Nc2ccc(F)cc2/C1=C\c1ccc2c(c1)CCO2` [Example 42, 3-(2,3-Dihydrobenzofuran-5-ylmethylene)-5-fluoro-1,3-dihydroindol-2-one] belongs 43.1 µM; to `CCOc1cccc(-c2cc(C=C3C(=O)Nc4ccccc43)ccc2OC)c1` [Example 46, 3-(3′-Ethoxy-6-methoxybiphenyl-3-ylmethylene)-1,3-dihydroindol-2-one], greater than 100 µM; to `O=C1Nc2ccc(Br)cc2/C1=C/c1cc2ccccc2[nH]1` [Example 165, 5-Bromo-3-(1H-indol-2-ylmethylene)-1,3-dihydro-indol-2-one], 48.7 µM.
